Assay results from PubChem BioAssay AID1963852 (Molecular Pharmacology Branch, DTP, NCI, 2024).

Tested on: 282377-053-R-J1-PDC complex spheroid viability
Experiment: Anticancer human tumor 282377-053-R-J1-PDC patient-derived colon adenocarcinoma cell line growth inhibition [POLQ]
Conditions: for IC50: curve of first compound; for viability, T/C: stronger effect = lower value
Method in brief: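 Three-cell-type spheroids modelling solid tumor plus stroma served as the readout system; POL inhibitors were tested individually and in combination, concentration ranges set by clinical Cmax where known.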
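Also: spheroids exposed to compounds for seven days.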
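For viability, T/C in this document: 100% = DMSO vehicle control viability.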

**Q.** For `C=CCn1c(=O)c2cnc(Nc3ccc(N4CCN(C)CC4)cc3)nc2n1-c1cccc(C(C)(C)O)n1` + Cc1cccc(N(C)C(=O)C2C(O)CCN2c2nc(C)cc(C(F)(F)F)c2C#N)c1, which IC50 (second compound 0.0316 µM) is on record?
**A.** The IC50 was greater than 1 µM.

**Q.** What about the IC50 (second compound 0.1 µM) of the same compound?
**A.** Its IC50 is greater than 1 µM.

**Q.** What about the IC50 (second compound 0.316 µM) of the same compound?
**A.** The IC50 was greater than 1 µM.

**Q.** What about the IC50 (second compound 1 µM) of the same compound?
**A.** The IC50 was greater than 1 µM.

**Q.** What about the IC50 (second compound 3.16 µM) of the same compound?
**A.** Its IC50 is greater than 1 µM.

**Q.** What about the IC50 (second compound 10 µM) of the same compound?
**A.** The IC50 was greater than 1 µM.

**Q.** What about the viability, T/C (second compound 0.0316 µM, first compound 0.00316 µM) of the same compound?
**A.** The viability, T/C was 106%.

**Q.** And the viability, T/C (second compound 0.0316 µM, first compound 0.01 µM)?
**A.** The viability, T/C was 107%.

**Q.** And the viability, T/C (second compound 0.0316 µM, first compound 0.0316 µM)?
**A.** Its viability, T/C is 107%.

**Q.** And the viability, T/C (second compound 0.0316 µM, first compound 0.1 µM)?
**A.** The viability, T/C was 96.9%.

**Q.** What about the viability, T/C (second compound 0.0316 µM, first compound 0.316 µM) of the same compound?
**A.** Its viability, T/C is 93.6%.

**Q.** What about the viability, T/C (second compound 0.0316 µM, first compound 1 µM) of the same compound?
**A.** Its viability, T/C is 76.6%.

**Q.** What about the viability, T/C (second compound 0.1 µM, first compound 0.00316 µM) of the same compound?
**A.** Its viability, T/C is 95.6%.

**Q.** What about the viability, T/C (second compound 0.1 µM, first compound 0.01 µM) of the same compound?
**A.** The viability, T/C was 110%.

**Q.** What about the viability, T/C (second compound 0.1 µM, first compound 0.0316 µM) of the same compound?
**A.** The viability, T/C was 94.3%.

**Q.** What about the viability, T/C (second compound 0.1 µM, first compound 0.1 µM) of the same compound?
**A.** The viability, T/C was 102%.

**Q.** And the viability, T/C (second compound 0.1 µM, first compound 0.316 µM)?
**A.** Its viability, T/C is 92.2%.

**Q.** What about the viability, T/C (second compound 0.1 µM, first compound 1 µM) of the same compound?
**A.** Its viability, T/C is 68.4%.

**Q.** What about the viability, T/C (second compound 0.316 µM, first compound 0.00316 µM) of the same compound?
**A.** The viability, T/C was 107%.

**Q.** And the viability, T/C (second compound 0.316 µM, first compound 0.01 µM)?
**A.** Its viability, T/C is 103%.

**Q.** And the viability, T/C (second compound 0.316 µM, first compound 0.0316 µM)?
**A.** The viability, T/C was 96.8%.

**Q.** What about the viability, T/C (second compound 0.316 µM, first compound 0.1 µM) of the same compound?
**A.** The viability, T/C was 91.1%.

**Q.** What about the viability, T/C (second compound 0.316 µM, first compound 0.316 µM) of the same compound?
**A.** The viability, T/C was 90.6%.

**Q.** What about the viability, T/C (second compound 0.316 µM, first compound 1 µM) of the same compound?
**A.** The viability, T/C was 71.8%.

**Q.** What about the viability, T/C (second compound 1 µM, first compound 0.00316 µM) of the same compound?
**A.** Its viability, T/C is 109%.

**Q.** And the viability, T/C (second compound 1 µM, first compound 0.01 µM)?
**A.** Its viability, T/C is 97%.

**Q.** What about the viability, T/C (second compound 1 µM, first compound 0.0316 µM) of the same compound?
**A.** The viability, T/C was 94.8%.

**Q.** And the viability, T/C (second compound 1 µM, first compound 0.1 µM)?
**A.** Its viability, T/C is 89.1%.

**Q.** What about the viability, T/C (second compound 1 µM, first compound 0.316 µM) of the same compound?
**A.** The viability, T/C was 89.2%.

**Q.** And the viability, T/C (second compound 1 µM, first compound 1 µM)?
**A.** Its viability, T/C is 73%.

**Q.** And the viability, T/C (second compound 3.16 µM, first compound 0.00316 µM)?
**A.** The viability, T/C was 104%.

**Q.** What about the viability, T/C (second compound 3.16 µM, first compound 0.01 µM) of the same compound?
**A.** The viability, T/C was 102%.

**Q.** And the viability, T/C (second compound 3.16 µM, first compound 0.0316 µM)?
**A.** The viability, T/C was 102%.

**Q.** And the viability, T/C (second compound 3.16 µM, first compound 0.1 µM)?
**A.** Its viability, T/C is 93.2%.

**Q.** What about the viability, T/C (second compound 3.16 µM, first compound 0.316 µM) of the same compound?
**A.** The viability, T/C was 98.3%.

**Q.** And the viability, T/C (second compound 3.16 µM, first compound 1 µM)?
**A.** The viability, T/C was 70.2%.

**Q.** What about the viability, T/C (second compound 10 µM, first compound 0.00316 µM) of the same compound?
**A.** Its viability, T/C is 99.9%.

**Q.** What about the viability, T/C (second compound 10 µM, first compound 0.01 µM) of the same compound?
**A.** Its viability, T/C is 103%.

**Q.** What about the viability, T/C (second compound 10 µM, first compound 0.0316 µM) of the same compound?
**A.** The viability, T/C was 93.7%.

**Q.** What about the viability, T/C (second compound 10 µM, first compound 0.1 µM) of the same compound?
**A.** The viability, T/C was 98.9%.

**Q.** And the viability, T/C (second compound 10 µM, first compound 0.316 µM)?
**A.** The viability, T/C was 94.3%.

**Q.** And the viability, T/C (second compound 10 µM, first compound 1 µM)?
**A.** The viability, T/C was 85.4%.
